Data on two compounds can be found in patent US8609713B2, “Pyrrole derivatives and their methods of use” (AbbVie Inc., priority 2006, dated 2013).

The experiment has as its target α7 nAChRs (Homo sapiens, UniProt P36544). Kind of experiment: High-throughput calcium flux (FLIPR) assay using IMR-32 cells expressing endogenous α7 nAChRs.

α7 nAChRs, sequence (P36544 23-502): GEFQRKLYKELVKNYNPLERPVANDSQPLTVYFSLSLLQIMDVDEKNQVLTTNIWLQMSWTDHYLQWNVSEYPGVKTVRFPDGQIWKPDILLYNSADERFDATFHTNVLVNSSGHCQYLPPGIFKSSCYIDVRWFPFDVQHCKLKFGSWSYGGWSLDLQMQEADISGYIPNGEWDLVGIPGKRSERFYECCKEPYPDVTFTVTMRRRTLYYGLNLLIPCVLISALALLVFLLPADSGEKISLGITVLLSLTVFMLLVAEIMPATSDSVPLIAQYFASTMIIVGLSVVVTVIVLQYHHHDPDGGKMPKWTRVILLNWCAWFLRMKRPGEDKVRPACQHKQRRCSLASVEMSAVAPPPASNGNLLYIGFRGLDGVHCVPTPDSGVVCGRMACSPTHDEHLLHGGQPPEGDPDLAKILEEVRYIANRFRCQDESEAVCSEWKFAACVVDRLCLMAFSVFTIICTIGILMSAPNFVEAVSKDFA
Protocol: (i) High-Throughput Calcium Flux Assays Using Cells Expressing Endogenous α7 nAChRs
Any suitable selective α7 agonist can be used.
IMR-32 neuroblastoma cells (ATCC) were grown to confluency in 162 cm^2 tissue culture flasks in minimum essential media supplemented with 10% FBS and 1 mM sodium puruvate, 0.1 mM non-essential amino acids and 1% antibiotic-antimycotic. The cells were then dissociated using cell dissociation buffer and 40 μl of 3.5×10^5 cells/ml cell suspension was plated (˜15,000 cells/well) into black plates with clear bottom and maintained for 48 hours in a tissue culture incubator at 37° C. under an atmosphere of 5% CO2: 95% air. […] Calcium flux was measured using calcium-3 assay kit (Molecular Devices, Sunnyvale, Calif.) or fluo-4. […] Fluorescence measurements were read simultaneously from all the wells by a Fluorometic Imaging Plate Reader (FLIPR) at an excitation wavelength of 480 nm and an emission wavelength of 520 nm. Baseline fluorescence was measured for the first 10 seconds, at which point 5× concentrations of modulator/test compounds were added to the cell plate and incubated for three minutes. The fluorescence intensity was captured every second for the first 1 minute followed by every 5 seconds for an additional 2 minutes. […]

Turning to `CN1CC2CN(c3ccc(-c4ccccc4)nn3)CC2C1` (centres unmarked), the “calcium response, agonist alone” value (absence of allosteric modulator, FIG. 3) was “did not trigger calcium responses”.

As for `CCN1C[C@]2(COC(=O)c3ccccc3N3C(=O)C[C@H](C)C3=O)CC[C@H](OC)[C@@]34[C@@H]5C[C@H]6[C@H](OC)[C@@H]5[C@](O)(C[C@@H]6OC)[C@@](O)([C@@H](OC)[C@H]23)[C@@H]14` [methyllycaconitine], the “effect of α7 selective antagonist on the agonist plus modulator calcium response” value is on record as “abolished response”.
